Assay results: US7015231B2, “Chemical compounds” (SmithKline Beecham Corporation, priority 2001, dated 2006)

What follows are molecules tested against T1, TrkA (Homo sapiens, UniProt P04629) (assay: TrkA substrate phosphorylation assay (tyrosine kinase activity, synthetic peptide substrate, 33P-ATP, p81 filter plates)). Settings: GST-fusion of the TrkA intracellular domain, 30 uM ATP, 50 uM Src peptide, RT for 120′.
T1 construct: The enzyme is a GST-fusion of the intracellular domain expressed in SF9 cells; GST; purchased Regeneron; host or cells: SF9 cells
T1 sequence (P04629 440-796 limits assumed, species assumed): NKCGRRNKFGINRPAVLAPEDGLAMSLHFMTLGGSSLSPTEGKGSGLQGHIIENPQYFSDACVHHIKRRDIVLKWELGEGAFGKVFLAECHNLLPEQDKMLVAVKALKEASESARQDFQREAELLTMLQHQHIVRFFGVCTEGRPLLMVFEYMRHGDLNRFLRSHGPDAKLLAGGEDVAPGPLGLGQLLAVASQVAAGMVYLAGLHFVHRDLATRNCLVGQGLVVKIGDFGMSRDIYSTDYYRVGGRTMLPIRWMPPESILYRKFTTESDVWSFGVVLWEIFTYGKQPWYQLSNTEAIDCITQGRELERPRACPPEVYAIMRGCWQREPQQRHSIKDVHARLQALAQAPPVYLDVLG
Assay type: biochemical
Procedure: Substrate phosphorylation assays were carried out as follows:
The enzyme is a GST-fusion of the intracellular domain expressed in SF9 cells. The enzyme is expressed and purified by Regeneron. The enzyme is preincubated with cold ATP and Mg to allow autophosphorylation prior to running the screen. […] The assay is performed in 96 well microtitre plates, and reaction products are detected following filtration through millipore p81 phosphocellulose plates.

COc1ccccc1-c1cc(C=C2C(=O)Nc3ncc(Br)cc32)cc(Br)c1O [Example 1, 3-(3-Bromo-4-hydroxy-5-(2′methoxyphenyl)-benzylidene)-5-bromo-1,3-dihydro-pyrrolo[2,3-b]pyridin-2-one] and Cn1cc(C=C2C(=O)Nc3ncccc32)c2ccccc21 [Example 4] cannot be ordered by IC50: < 10 nM for the first, < 10 nM for the second.

First: O=C1Nc2cccnc2C1=Cc1c[nH]c2ccccc12 [Example 3]
Second: O=C1Nc2ncccc2C1=Cc1c[nH]c2ccccc12 [Example 5]
The IC50 of the first is higher: 10 to 250 nM for the first, < 10 nM for the second.
